In PubChem BioAssay (NCI):
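Briefly, cells in 96-well plates were exposed to five compound concentrations for 48 h, and endpoints were estimated by linear interpolation. Here, GI50 denotes the concentration required for 50% inhibition of growth. At the TGI there is no net growth.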

Columns and labels:
Assay in all cases: DTP human tumour cell line panel, 48 h
SW-620 colon = test system: SW-620 colon
SK-MEL-5 melanoma = test system: SK-MEL-5 melanoma
HCT-116 colon = test system: HCT-116 colon
M19-MEL melanoma = test system: M19-MEL melanoma
OVCAR-3 ovarian = test system: OVCAR-3 ovarian
ACHN renal = test system: ACHN renal
SK-MEL-28 melanoma = test system: SK-MEL-28 melanoma
T-47D breast = test system: T-47D breast
BT-549 breast = test system: BT-549 breast
MDA-MB-231 breast = test system: MDA-MB-231 breast

| Compound | TGI (SW-620 colon) | TGI (SK-MEL-5 melanoma) | TGI (HCT-116 colon) | TGI (M19-MEL melanoma) | TGI (OVCAR-3 ovarian) | TGI (ACHN renal) | TGI (SK-MEL-28 melanoma) | TGI (T-47D breast) | TGI (BT-549 breast) | TGI (MDA-MB-231 breast) | GI50 (T-47D breast) | GI50 (SW-620 colon) | GI50 (SK-MEL-5 melanoma) | GI50 (HCT-116 colon) | GI50 (OVCAR-3 ovarian) | GI50 (ACHN renal) | GI50 (MDA-MB-231 breast) | GI50 (SK-MEL-28 melanoma) | GI50 (BT-549 breast) |
| --- | --- | --- | --- | --- | --- | --- | --- | --- | --- | --- | --- | --- | --- | --- | --- | --- | --- | --- | --- |
| CC(C)CCC[C@@H](C)C1CCC2[C@@H]3CC=C4C[C@@H](C(=O)NCC[N+](C)(C)CCCS(=O)(=O)[O-])CC[C@]4(C)C3CC[C@@]21C (some centres not stated) | 30.7 µM | 41.4 µM | 30.9 µM | 31.1 µM | 30 µM | 32.5 µM | 34.5 µM |  |  |  |  |  |  |  |  |  |  |  |  |
| O=C(O)CNc1ccc(C(=O)O)cc1 | > 100 µM | > 100 µM | > 100 µM |  | > 100 µM | > 100 µM | > 100 µM | > 100 µM | > 100 µM | > 100 µM |  |  |  |  |  |  |  |  |  |
| S=P1(N2CCCCC2)Oc2ccc3ccccc3c2-c2c(ccc3ccccc23)O1 | > 100 µM | > 100 µM | > 100 µM | > 100 µM | > 88.3 µM |  | > 100 µM |  |  |  |  |  |  |  |  |  |  |  |  |
| O=[N+]([O-])c1ccccc1NC1c2ccccc2Oc2ccccc21 | > 100 µM | > 100 µM | > 100 µM |  | > 100 µM | > 100 µM | > 100 µM | > 100 µM |  | 66.6 µM | 27.8 µM | 3.55 µM | 3.44 µM | 4.08 µM | 3.64 µM | 5.93 µM | 3.95 µM | 4.85 µM |  |
| Cc1ccc([N+](=O)[O-])cc1S(=O)(=O)Nc1ccc(C2=NNC(c3ccccc3O)C2)cc1 (configuration not stated) | > 100 µM | 58.6 µM | 60.8 µM |  | 43.7 µM | 77 µM | > 100 µM | 72.4 µM | 63.5 µM | > 100 µM |  |  |  |  |  |  |  |  |  |
| CN1CCCCC(C#N)(c2ccccc2)CC1 (configuration not stated) | > 100 µM | > 100 µM | > 100 µM |  |  | > 100 µM | > 100 µM | > 100 µM |  |  |  |  |  |  |  |  |  |  |  |
| N=C(N)c1ccc(-c2ccc(-c3ccccc3)s2)cc1 |  | 3.19 µM |  |  |  | 3.03 µM | 3.13 µM | 4.79 µM | 19.9 µM | 2.87 µM | 1.83 µM |  | 1.77 µM |  |  | 1.67 µM | 1.43 µM | 1.67 µM | 3.22 µM |
| CC(=O)Oc1ccc2c(c1)oc1c3ccc(OC(C)=O)cc3n(C)c(=O)c21 | > 100 µM | 16.7 µM | 48.7 µM |  | > 100 µM | > 100 µM | > 100 µM | > 100 µM | > 100 µM | > 100 µM |  |  |  |  |  |  |  |  |  |
| C=C1C(=O)C[C@@]23CCC[C@@]12CC(OCOC)C3 (some centres not stated) | 3.97 µM | 13.3 µM | 6 µM | 12.5 µM | 6.48 µM |  | 8.14 µM |  |  |  |  |  |  |  |  |  |  |  |  |
| N=c1c2c(=S)n(-c3ccccc3)c(=S)n(-c3ccccc3)c2nc(SCCCN2CCN(c3cccc(Cl)c3)CC2)n1-c1ccccc1 | > 100 µM | > 100 µM |  |  | > 100 µM | > 100 µM | > 100 µM |  | > 100 µM | 70.9 µM |  |  |  |  |  |  |  |  |  |
| Cc1cc(C)c2c(c1)CC1(Cc3c(C)ccc(C)c3C1=O)C2=O (configuration not stated) | > 100 µM | > 100 µM |  |  | > 100 µM | > 100 µM | > 100 µM | > 100 µM | > 100 µM | > 100 µM |  |  |  |  |  |  |  |  |  |
| CCCCCCCC/C=C\CCCCCCCC(=O)O | 355 µM | > 282 µM | 217 µM | 183 µM | > 232 µM |  | 329 µM |  |  |  |  |  |  |  |  |  |  |  |  |
| COC(=O)c1cccc(N[C@@H]2c3cc4c(cc3C(c3cc(OC)c(O)c(OC)c3)[C@H]3C(=O)OCC32)OCO4)c1 (some centres not stated) | > 100 µM | 3.02 µM | 21.9 µM | > 100 µM | 33.7 µM |  | > 100 µM |  |  |  |  |  |  |  |  |  |  |  |  |
| CCN(CC)CCCNc1ncc(C)c2[nH]c3ccncc3c12 | 36.9 µM | 28.1 µM | 30.3 µM | 28 µM | 56.3 µM |  | 27.4 µM |  |  |  |  |  |  |  |  |  |  |  |  |
| COc1cc(/C=C/c2cc(/C=C/c3ccc(O)c(OC)c3)nc(N)n2)ccc1O |  | 2.89 µM | 2.39 µM |  | 8.62 µM | 7.88 µM | 4.53 µM | 9.55 µM |  | 4.08 µM | 2.83 µM |  | 1.49 µM | 1.1 µM | 2.65 µM | 2.54 µM | 1.45 µM | 1.85 µM |  |
| O=C(O)CS | > 100 µM | > 100 µM | > 100 µM | > 100 µM |  |  | > 100 µM |  |  |  |  |  |  |  |  |  |  |  |  |
